Reference: patent US20180296595A1, “METHODS AND COMPOSITIONS FOR CANCER TREATMENT” (Memorial Sloan Kettering Cancer Center, priority 2015, published 2018)
Ends that are not written are not given here.

Assays:
22RV1 cells = experiment: FPN expression after hepcidin therapy; type: cell-based
Excerpt: As a followup, eight different genomic datasets available for prostate cancer on cBioPortal (www.cbioportal.org) containing whole genome data from 1229 prostate cancer patients were mined for analysis. […] FACS and Western Blotting confirmed higher expression of FPN in 22RV1 compared to DU145 (FIG. 7, panel C). […] In 22RV1 cells with higher FPN higher levels of erastin were required compared to DU145 cells with low FPN (FIG. 7, panel E).

FR2 = FR2 (Homo sapiens, UniProt P14207); settings: read-out: affinity for FR2; cited from earlier work
Chain of FR2 (P14207 17-230): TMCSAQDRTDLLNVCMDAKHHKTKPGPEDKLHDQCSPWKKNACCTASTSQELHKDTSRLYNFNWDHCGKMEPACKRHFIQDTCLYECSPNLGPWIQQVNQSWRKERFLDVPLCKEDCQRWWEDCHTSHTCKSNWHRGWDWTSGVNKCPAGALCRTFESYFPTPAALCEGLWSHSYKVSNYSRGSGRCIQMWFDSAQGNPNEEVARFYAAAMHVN

FR1 = FR1 (Homo sapiens, UniProt P15328); settings: read-out: affinity for FR1; cited from earlier work
Chain of FR1 (P15328 25-234): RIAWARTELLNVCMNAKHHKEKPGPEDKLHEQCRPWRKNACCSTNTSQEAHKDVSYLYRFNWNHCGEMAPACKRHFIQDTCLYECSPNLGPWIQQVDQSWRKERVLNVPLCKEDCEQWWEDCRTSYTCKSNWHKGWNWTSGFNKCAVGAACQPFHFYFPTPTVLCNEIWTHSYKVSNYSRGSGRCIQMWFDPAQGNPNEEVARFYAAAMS

LNCaP xenografts = experiment: LNCaP prostate cancer xenografts; type: in vivo
Protocol: Each of the photographs in FIG. 6, panel C and panel D depicts a representative animal treated with vehicle (FIG. 6, panel C) or bortezomib-loaded FH (1.0 mM) (FIG. 6, panel D).
Studies in breast cancer described a “low intracellular iron” phenotype, characterized by high ferroportin, which was associated with good prognosis. In contrast, the “high intracellular iron” phenotype, characterized by low ferroportin and high hepcidin, was associated with a poor prognosis (Pinnix et al. (2010), Sci. Transl. Med., 2(43): 43ra56). Recently, a similar observation was made in prostate cancer (Tesfay et al. (2015) Cancer Res., 75(11):2254-63. To extend the analysis to prostate cancer, LNCaP prostate cancer xenografts were treated with FH-loaded bortezomib (a ROS-inducing drug).
FH alone was able to decrease tumor volume by about 33% (panel b). […] Free bortezomib was not effective, but when loaded into FH a significant therapy effect was achieved as shown in (panels a and b). Importantly, FH alone also exerted an effect, decreasing tumor volume. Each of the photographs in panel c and panel d depicts a representative animal treated with vehicle (panel c) or bortezomib-loaded FH (1.0 mM) (panel d).

hepcidin (DTHFPICIFCCGCCHRSKCGMCCKT; ends and bridges not checked; cysteine pairing not given here; UniProt P81172 60-84, looked up) [peptide hormone, key regulator of iron homeostasis]
FPN on the cell surface (22RV1 cells): lowered FPN on the cell surface

CN1c2c(nc(N)[nH]c2=O)NC[C@@H]1CNc1ccc(C(=O)N[C@@H](CCC(=O)O)C(=O)O)cc1 [6S 5-methyltetrahydrofolate]
Kd (FR2): 1 nM | Kd (FR1): 55 nM

CC(C)C[C@H](NC(=O)[C@H](Cc1ccccc1)NC(=O)c1cnccn1)B(O)O [bortezomib]
therapeutic effect (LNCaP xenografts): not effective
